In ChEMBL document CHEMBL1201862, “PubChem BioAssay data set” (2004) one finds AC50, EC50 and IC50 data, which are given here for twelve compounds.

Calls of active or inactive are those of the source.

For test [1], the target named is FAD-linked sulfhydryl oxidase ALR (Homo sapiens, UniProt P55789). The test can be described thus: ALR-catalysed DTT oxidation blockers – biochemical, H2O2 detection, luminescence, cherry-pick, dose response (AID 493248).
In test [2] the test system is Escherichia coli. The test can be described thus: microbe, parasite or virus in culture.
Test [3] concerns the target T1, Endoribonuclease toxin MazF (Escherichia coli K-12, UniProt P0AE70).
T1 sequence (P0AE70 whole entry): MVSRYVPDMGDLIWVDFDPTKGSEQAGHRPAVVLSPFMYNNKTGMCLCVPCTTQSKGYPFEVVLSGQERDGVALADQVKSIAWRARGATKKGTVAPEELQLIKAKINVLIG
The test can be described thus: substrate-only fluorescence increase artefacts – biochemical, single-stranded RNase substrate, counter-screen for MazEF activator project, dose response (AID 588502). It counts as functional.

Test [4] deals with T1, Endoribonuclease toxin MazF. The experiment in a line: activation of MazEF endoribonuclease cleavage – biochemical, fluorescence, single-stranded RNA substrate, uHTS hits, dose response (AID 588481). It counts as functional.
Test [5] in a line: viability loss of HMLE_sh_eGFP cells – cell-based, luminescence, counter-screen for HMLE_sh_ECad selective toxicity project, dose response (AID 463074).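 Note: HMLE human mammary epithelial cells expressing control shRNA against eGFP.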 It counts as functional, Homo sapiens.
Test [6] in a line: Luminescence Cell-Based Dose Retest to Confirm Inhibitors of Cancer Stem Cells. [Related pubchem assays (depositor defined):AID2717, AID2721]. It counts as functional. The following applies: Homo sapiens.
Test [7] addresses Voltage-gated inwardly rectifying potassium channel KCNH2 (Homo sapiens, UniProt Q12809). The following applies: Potency.
The subject of test [8] is Streptococcus. The test can be described thus: GAS UMAA2166 growth inhibition – luminescence, BacTiterGlo, counter-screen for streptokinase expression inhibitor project, dose response (AID 1915).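 Note: potency for reduction of bacterial viability or growth.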 It counts as functional, organism-based.
Test [9] deals with T2, Streptokinase A (Streptococcus pyogenes serotype M1, UniProt P10520).
T2 sequence (P10520 whole entry): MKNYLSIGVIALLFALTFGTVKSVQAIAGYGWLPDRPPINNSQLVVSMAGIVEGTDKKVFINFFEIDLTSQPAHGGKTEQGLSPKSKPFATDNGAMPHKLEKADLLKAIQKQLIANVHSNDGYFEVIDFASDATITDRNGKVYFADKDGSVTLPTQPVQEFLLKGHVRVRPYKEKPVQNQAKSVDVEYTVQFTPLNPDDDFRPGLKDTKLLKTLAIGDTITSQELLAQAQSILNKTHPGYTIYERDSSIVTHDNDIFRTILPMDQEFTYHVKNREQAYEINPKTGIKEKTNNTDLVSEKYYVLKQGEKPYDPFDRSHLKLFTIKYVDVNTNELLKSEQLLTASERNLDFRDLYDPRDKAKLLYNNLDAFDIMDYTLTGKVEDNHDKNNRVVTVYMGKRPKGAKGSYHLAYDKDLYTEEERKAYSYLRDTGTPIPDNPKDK
The experiment in a line: viability-normalized secreted streptokinase activity reduction – plasminogen activation absorbance, OD405, dose response (AID 1914).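 Note: secreted streptokinase activity via plasminogen activation per viability signal from cell pellet.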 It counts as functional, Streptococcus pyogenes M1 GAS.

The subject of test [10] is Streptococcus sp. 'group A'. The experiment in a line: Streptococcus pyogenes SK(-)GAS viability under kanamycin – luminescence, BacTiterGlo, confirmation, counter-screen for streptokinase expression inhibitor project, dose response (AID 1900). It counts as functional, organism-based.
Test [11] deals with Lysine-specific demethylase 4A (Homo sapiens, UniProt O75164). The experiment in a line: inhibition of JMJD2A H3K9me3 demethylation – biochemical, DELFIA europium, cherry-picked samples, selectivity assay for GASC-1 inhibitor project, dose response (AID 488840).
The target of test [12] is Albumin (Bos taurus, UniProt P02769). The experiment in a line: Counterscreen for inhibitors of T-cell receptor (TCR)-CD3 interaction: Fluorescence-based biochemical high throughput dose response assay to identify inhibitors of T-cell receptor (TCR)-CD3 interaction using a TAMRA-labeled BSA probe. It counts as functional.
In test [13] the target is T3, Lysine-specific demethylase 4C (Homo sapiens, UniProt Q9H3R0).
T3 sequence (Q9H3R0 whole entry): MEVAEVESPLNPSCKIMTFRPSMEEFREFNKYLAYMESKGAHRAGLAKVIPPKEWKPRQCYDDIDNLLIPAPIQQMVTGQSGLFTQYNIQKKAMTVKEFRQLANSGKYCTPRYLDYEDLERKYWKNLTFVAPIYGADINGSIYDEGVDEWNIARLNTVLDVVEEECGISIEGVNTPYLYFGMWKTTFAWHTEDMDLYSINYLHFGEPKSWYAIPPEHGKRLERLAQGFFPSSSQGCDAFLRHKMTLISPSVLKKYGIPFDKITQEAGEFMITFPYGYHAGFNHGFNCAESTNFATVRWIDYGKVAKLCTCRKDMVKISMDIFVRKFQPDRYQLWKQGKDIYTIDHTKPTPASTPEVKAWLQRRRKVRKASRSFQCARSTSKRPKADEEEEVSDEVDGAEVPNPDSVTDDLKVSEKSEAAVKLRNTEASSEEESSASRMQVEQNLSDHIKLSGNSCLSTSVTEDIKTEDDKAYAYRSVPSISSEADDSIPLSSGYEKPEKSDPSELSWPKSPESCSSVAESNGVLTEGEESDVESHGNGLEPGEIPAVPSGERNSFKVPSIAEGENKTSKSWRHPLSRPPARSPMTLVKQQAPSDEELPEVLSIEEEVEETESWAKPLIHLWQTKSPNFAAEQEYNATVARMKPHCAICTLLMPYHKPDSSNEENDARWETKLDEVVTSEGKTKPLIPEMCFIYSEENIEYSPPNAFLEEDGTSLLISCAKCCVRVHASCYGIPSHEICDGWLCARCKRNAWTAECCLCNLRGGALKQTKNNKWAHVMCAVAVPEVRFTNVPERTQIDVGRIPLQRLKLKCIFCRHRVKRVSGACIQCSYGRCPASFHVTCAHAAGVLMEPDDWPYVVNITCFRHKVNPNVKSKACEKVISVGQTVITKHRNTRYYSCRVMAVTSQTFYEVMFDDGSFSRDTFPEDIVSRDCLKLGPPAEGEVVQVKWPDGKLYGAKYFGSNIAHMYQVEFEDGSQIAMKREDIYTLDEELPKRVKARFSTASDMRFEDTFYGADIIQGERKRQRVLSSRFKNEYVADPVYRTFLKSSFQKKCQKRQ
The test can be described thus: inhibition of JMJD2C H3K9me3 demethylation – biochemical, DELFIA europium, cherry-picked samples, dose response (AID 488835). It counts as functional.

Test [14] deals with T4, Carboxy-terminal domain RNA polymerase II polypeptide A small phosphatase 1 (Homo sapiens, UniProt Q9GZU7).
T4 sequence (Q9GZU7 whole entry): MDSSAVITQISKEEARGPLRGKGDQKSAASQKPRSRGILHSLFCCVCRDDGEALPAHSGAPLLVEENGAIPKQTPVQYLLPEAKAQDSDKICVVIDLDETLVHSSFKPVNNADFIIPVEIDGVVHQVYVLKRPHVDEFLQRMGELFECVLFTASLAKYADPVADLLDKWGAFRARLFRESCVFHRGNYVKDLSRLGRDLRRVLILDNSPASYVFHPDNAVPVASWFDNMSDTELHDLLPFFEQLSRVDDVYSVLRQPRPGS
The test can be described thus: CTDSP1 inhibitors, concentration-response, biochemical, absorbance readout, ultra-high-throughput screen actives (AID 540297). It counts as functional.

Test [15] concerns HEK293. The experiment in a line: cells. The following applies: Homo sapiens.
Test [16] can be described thus: blockers of HIV-1 envelope-mediated cell-cell fusion – cherry-pick, dose response (AID 652057). It counts as functional, cell-based.
The subject of test [17] is HEK293. The test can be described thus: cells. The following applies: Homo sapiens. This is another data set of the same source.
The nature of test [18]: blockers of HIV-1 ZM109 envelope-driven cell-cell fusion – HeLa effector, CEM target cells, luciferase, cherry-pick, dose response (AID 652058).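 Note: luciferase signal from HIV-1 Env mediated cell-cell fusion of effector and target cells.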 It counts as functional, cell-based.
Test [19] can be described thus: off-target signal loss in HeLa-CEM21 co-culture – HeLa F-luc CTL cells, cherry-picked, counter-screen for HIV-1 Env fusion inhibitor project, dose response (AID 652040).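 Note: potency for signal decrease marking cytotoxic or nonspecific inhibition.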 It counts as functional, cell-based.
The nature of test [20]: HIV-1 AD8 envelope cell-cell fusion blockers – cherry-pick, dose response (AID 652062).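 Note: luciferase signal from cell-cell fusion driven by HIV-1 clade B AD8 Env; potency is for inhibitors of fusion seen as a drop in luminescence.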 It counts as functional, cell-based.
Test [21] in a line: Fluorescence-based cell-based high throughput dose response assay for inhibitors of the interaction of nucleotide-binding oligomerization domain containing 2 (NOD2) and the receptor-interacting serine-threonine kinase 2 (RIPK2). It counts as functional. The following applies: Homo sapiens.
The target in test [22] is CAAX prenyl protease 2 (Homo sapiens, UniProt Q9Y256). The experiment in a line: inhibition of Ras-converting CAAX protease Rce1 – biochemical, yeast membranes, quenched-peptide fluorescence, cherry-pick, dose response (AID 588849).
CAAX prenyl protease 2, sequence (Q9Y256 whole entry): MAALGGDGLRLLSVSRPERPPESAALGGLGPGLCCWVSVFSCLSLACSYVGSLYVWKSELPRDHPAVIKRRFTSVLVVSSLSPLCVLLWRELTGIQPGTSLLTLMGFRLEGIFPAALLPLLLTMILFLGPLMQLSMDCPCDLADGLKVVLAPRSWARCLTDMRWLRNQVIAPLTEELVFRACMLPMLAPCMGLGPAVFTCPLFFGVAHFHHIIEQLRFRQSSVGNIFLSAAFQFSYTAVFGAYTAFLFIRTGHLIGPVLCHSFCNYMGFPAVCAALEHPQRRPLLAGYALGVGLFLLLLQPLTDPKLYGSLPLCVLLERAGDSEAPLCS

Voltage-gated inwardly rectifying potassium channel KCNH2, sequence (Q12809 whole entry): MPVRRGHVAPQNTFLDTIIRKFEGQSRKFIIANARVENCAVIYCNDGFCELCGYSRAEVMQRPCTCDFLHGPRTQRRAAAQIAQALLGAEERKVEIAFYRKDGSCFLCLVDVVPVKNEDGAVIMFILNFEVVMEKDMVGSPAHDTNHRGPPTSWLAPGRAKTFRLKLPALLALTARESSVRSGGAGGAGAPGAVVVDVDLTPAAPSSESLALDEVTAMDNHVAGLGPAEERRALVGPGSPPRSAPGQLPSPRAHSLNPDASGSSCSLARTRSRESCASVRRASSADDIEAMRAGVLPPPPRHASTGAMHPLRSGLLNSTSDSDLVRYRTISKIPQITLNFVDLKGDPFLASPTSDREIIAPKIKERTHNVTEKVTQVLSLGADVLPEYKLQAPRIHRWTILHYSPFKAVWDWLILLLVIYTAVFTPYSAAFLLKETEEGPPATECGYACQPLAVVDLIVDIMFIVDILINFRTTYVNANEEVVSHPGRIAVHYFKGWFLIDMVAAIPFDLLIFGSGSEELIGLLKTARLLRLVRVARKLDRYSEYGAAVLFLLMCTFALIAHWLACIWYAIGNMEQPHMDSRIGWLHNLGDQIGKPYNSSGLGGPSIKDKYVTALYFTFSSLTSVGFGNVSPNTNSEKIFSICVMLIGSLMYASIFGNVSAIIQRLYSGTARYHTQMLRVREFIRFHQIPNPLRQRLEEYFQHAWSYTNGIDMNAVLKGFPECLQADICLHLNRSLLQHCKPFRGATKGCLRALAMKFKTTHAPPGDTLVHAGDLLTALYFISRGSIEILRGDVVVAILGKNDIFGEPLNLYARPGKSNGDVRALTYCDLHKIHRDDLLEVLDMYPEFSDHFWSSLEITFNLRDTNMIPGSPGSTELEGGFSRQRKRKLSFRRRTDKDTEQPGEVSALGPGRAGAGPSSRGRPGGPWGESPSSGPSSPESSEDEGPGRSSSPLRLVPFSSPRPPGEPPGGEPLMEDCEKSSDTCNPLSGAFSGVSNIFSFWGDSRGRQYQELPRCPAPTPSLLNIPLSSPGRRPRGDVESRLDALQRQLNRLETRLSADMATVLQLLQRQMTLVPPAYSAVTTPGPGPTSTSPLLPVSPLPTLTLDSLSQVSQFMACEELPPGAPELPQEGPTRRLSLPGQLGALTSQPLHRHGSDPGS
FAD-linked sulfhydryl oxidase ALR, sequence (P55789 whole entry): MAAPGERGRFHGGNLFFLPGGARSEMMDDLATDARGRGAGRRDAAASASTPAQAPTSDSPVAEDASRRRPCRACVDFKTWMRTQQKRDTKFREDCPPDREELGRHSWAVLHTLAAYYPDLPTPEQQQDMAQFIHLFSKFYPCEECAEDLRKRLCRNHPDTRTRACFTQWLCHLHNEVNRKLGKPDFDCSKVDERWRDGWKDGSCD
Albumin, sequence (P02769 whole entry): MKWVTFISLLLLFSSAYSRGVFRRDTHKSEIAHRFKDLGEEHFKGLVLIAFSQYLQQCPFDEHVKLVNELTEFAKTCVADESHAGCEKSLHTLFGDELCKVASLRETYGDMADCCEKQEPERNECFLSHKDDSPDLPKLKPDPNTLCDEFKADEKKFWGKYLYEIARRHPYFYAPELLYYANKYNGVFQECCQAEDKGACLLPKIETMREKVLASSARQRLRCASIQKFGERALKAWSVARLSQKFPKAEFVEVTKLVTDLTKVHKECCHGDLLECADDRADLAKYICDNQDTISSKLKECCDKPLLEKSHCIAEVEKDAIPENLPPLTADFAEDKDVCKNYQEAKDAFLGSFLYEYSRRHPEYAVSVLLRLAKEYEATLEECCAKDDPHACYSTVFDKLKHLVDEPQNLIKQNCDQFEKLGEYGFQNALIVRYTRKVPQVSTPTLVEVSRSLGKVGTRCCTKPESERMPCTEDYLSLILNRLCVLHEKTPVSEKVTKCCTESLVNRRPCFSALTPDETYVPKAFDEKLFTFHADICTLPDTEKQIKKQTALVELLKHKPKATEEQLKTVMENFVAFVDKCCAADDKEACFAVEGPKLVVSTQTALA
Lysine-specific demethylase 4A, sequence (O75164 whole entry): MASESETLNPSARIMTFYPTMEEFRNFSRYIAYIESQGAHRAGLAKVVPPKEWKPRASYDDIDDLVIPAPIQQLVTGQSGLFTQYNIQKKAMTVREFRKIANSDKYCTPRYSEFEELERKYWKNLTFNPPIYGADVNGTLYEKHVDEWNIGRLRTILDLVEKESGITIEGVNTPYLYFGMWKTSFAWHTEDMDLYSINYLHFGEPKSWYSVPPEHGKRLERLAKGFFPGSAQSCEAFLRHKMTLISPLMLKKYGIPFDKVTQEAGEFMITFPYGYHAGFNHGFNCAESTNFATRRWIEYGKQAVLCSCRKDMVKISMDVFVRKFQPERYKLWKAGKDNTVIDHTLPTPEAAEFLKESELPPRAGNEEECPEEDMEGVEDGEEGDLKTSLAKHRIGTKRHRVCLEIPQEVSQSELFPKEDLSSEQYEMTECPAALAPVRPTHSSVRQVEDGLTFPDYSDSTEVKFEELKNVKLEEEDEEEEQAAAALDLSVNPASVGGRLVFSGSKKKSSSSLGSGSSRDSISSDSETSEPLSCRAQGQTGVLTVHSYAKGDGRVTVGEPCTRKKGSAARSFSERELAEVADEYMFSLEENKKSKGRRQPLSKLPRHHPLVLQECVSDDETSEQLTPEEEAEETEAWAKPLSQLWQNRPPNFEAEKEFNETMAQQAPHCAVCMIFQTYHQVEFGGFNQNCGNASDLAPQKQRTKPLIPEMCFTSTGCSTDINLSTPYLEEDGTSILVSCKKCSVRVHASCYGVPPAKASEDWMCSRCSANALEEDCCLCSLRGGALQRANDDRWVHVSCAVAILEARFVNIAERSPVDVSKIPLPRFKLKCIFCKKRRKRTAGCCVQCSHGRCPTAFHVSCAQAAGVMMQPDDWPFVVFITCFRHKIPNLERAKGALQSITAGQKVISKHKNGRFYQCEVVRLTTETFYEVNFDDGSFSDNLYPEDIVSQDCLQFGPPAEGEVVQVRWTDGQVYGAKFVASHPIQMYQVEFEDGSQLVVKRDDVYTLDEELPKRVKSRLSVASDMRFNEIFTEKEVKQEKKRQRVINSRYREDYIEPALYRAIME

`Cc1ccc(SCc2noc(C(=O)NC(C)C)c2C(=O)O)cc1C`: the AC50 in test [1] was 4.26 µM (active); in test [2], 65.6 µM (active).

For `Cc1cccc(N=Nc2c(O)[nH]c3ccc(F)cc23)c1`, the EC50 was > 99 µM (inactive) in test [3] and 38.7 µM (inactive) in [4].

On to `Cc1ccc(CSc2ccc(-c3ccc4c(c3)OCO4)nn2)cc1`, for which the values for the AC50 in [5] and in [6] were 43.6 µM (active) and 1.46 µM (active), respectively.

As for `CC(C=O)Cc1ccc(C(C)(C)C)cc1` (stereo not given), in test [7], the concentration at half-maximal activity (AC50) is 50.1 µM (inconclusive).

With `CC(C)(C)c1ccc(OCC(O)CS(=O)(=O)c2ccccn2)cc1` (stereo not given), the EC50 in test [8], in test [9] and in test [10] was > 150 µM (not active) throughout. In addition, the AC50 in test [2] is 23.7 µM (active).

Consider `Cc1ccc(C(=O)NNC(=O)c2ccc3ccccc3c2O)cc1`, for which the AC50 in [11] was 6.59 µM (active); in test [13], 8.8 µM (active). Moreover, the IC50 is > 94 µM (inactive) in test [12] and 7.74 µM (active) in test [14].

`CCN(C[C@H]1N[C@@](CC)(C(=O)OC)[C@H]2C(=O)N(Cc3ccccc3)C(=O)[C@@H]12)S(=O)(=O)c1ccc(C)cc1`: the EC50 in [15] and in test [17] was > 59.6 µM (inactive) throughout. In addition, the AC50 was 2.36 µM (active) in [16], 2.37 µM (active) in [18], 3.4 µM (active) in test [19] and 4.32 µM (active) in [20].

Turning to `COc1cccc(-c2sc3ccc(OC)cc3c2-c2ccc(OCCN3CCOCC3)cc2)c1`, the AC50 in [5] is 3.73 µM (inconclusive); in test [6] it was 2.09 µM (active).

`CN(N=Cc1ccc([N+](=O)[O-])cc1)c1ccccn1`: the EC50 in test [3] was 37.8 µM (inactive); in test [4], 51.8 µM (inactive).

Turning to `O=[N+]([O-])c1ccc(Sc2ccncn2)c([N+](=O)[O-])c1`, the EC50 in test [15] and in test [17] was > 59.6 µM (inactive) each time. For the same compound, in [21], the IC50 was 7.56 µM (active).

With `CCN(CC)c1ccc(/C=N/NC(=O)C(O)(c2ccccc2)c2ccccc2)o1`, the AC50 in [22] was > 100 µM (inactive).

For the compound `NC(Cc1ccc(N(CCCl)CCCl)cc1)C(=O)O` (stereo not given) [SARCOLYSIN], the AC50 in test [7] is 35.5 µM (inconclusive).
